# Assay results reported in patent publication US20050227296A1, “Method for indentifying integrin antagonists” (The General Hospital Corporation, a Massachusetts …, priority 1988, published 2005).
# Experiments:
# [1] = tested on: biotinylated NIF binding to human neutrophils; assay: Inhibition of biotinylated NIF binding to neutrophils
# Experimental: 100 μg of rNIF were labeled with sulfo-NHS-Biotin as described above. rNIF binding to resting or stimulated human neutrophils (pretreated with 10^−6 M f-met-leu-phe, for 15 minutes at 37° C., then washed) was measured. Increasing amounts of biotinylated rNIF in the absence or presence of 100-fold molar excess of unlabeled rNIF were incubated on ice for one hour with 1×10^6 neutrophils in VBSG^++ in a total volume of […]. Cells were then washed and incubated with phycoerythrin-coupled avidin (Sigma Chemical Co.) under similar conditions, washed again, fixed in 1% paraformaldehyde in PBS, and analyzed using FACScan (Becton Dickinson Co., Mountain View, Calif.). Mean channel fluorescence for each sample was then expressed as a function of the amount of biotinylated rNIF used. Background binding of phycoerythrin-streptavidin alone to neutrophils was subtracted (2.8 fluorescent units). Specific binding was obtained by […], and the values plotted according to Scatchard (Ann. N.Y. Acad. Sci. 51:660, 1949). To determine the effect of unlabeled fluid-phase-r11bA or GST on rNIF binding to neutrophils, each was preincubated at varying concentrations with biotinylated rNIF (20 ng/ml, final concentration) for 15 minutes on ice before addition of the mixture to neutrophils. The effect of mAbs on biotinylated NIF binding to neutrophils was assessed by preincubating the neutrophils with 100 μg/ml of each mAb at 4° C. for 15 minutes before addition of biotinylated NIF (20 ng/ml). The incubation then continued for one hour, followed by processing of cells for FACS analysis as described below.
# [2] = molecular target: CR3 (CD11b/CD18) expressed by normal human neutrophils (Homo sapiens, UniProt P11215); assay: EAiC3b binding to adherent neutrophils (CR3); format: cell-based
# Experimental: Purification and adherence of human neutrophils: Neutrophils were purified as described by Boyum et al. (Scand. J. Clin. Lab. Med. 97(suppl.):77, 1968), resuspended in divalent-cation-free Tris-HCl-saline buffer, pH 7.4 at 5×10^7/ml and kept on ice until used. Neutrophils (2×10^5 cells/well) were allowed to adhere to 96-well plates in Iscov's Modified Medium for one hour at 37° C., in a humidified incubator with 5% CO2. The wells were then washed, and […] of fluoresceinated EAiC3b or EA (at 1.5×10^8/ml) were added in the presence of 3% BSA, in a total volume of […], followed by 15 min incubation at 37° C. with 5% CO2. Wells were then washed and fluorescence quantified as described above.
# The ability of A7 to inhibit EAiC3b binding to CR3 (CD11b/CD18) expressed by normal human neutrophils was measured under conditions similar to those used in assessing EAiC3b binding to rA-domain. EAiC3b binding to neutrophils is primarily mediated by CR3, but can also occur in vitro through complement receptor type 1 (CR1). The effect of A7 on EAiC3b binding was tested in nearly isotonic conditions and in the presence of blocking concentrations of a polyclonal anti-CR1 antibody (Ross et al., J. Exp. Med. 158:334, 1983). […] These findings indicate that A7 is the major site in CR3 responsible for its interaction with iC3b.
substance,measurement,setting,value
"r11bA: recombinant human CD11b A domain (Cys128 to Glu321), expressed as GST fusion protein, used as such or after thrombin cleavage",concentration range inhibiting NIF binding to leukocytes,[1],low nM range
same,effect of fluid-phase protein on biotinylated rNIF binding to human neutrophils,[1]; dose dependent,abolished
same,IC50,"[1]; fluid-phase protein, read-out: half-maximal inhibition of biotinylated rNIF binding to human neutrophils",~1 nM
same,concentrations required for inhibition of iC3b binding to leukocytes,[2],micromolar concentrations
